Here are results for one compound from patent publication US7745465B2, “Method of enhancing cellular production of molecular chaperone, hydroxylamine derivatives useful for enhancing the chaperone production and the preparation thereof” (CytRx Corporation, priority 1995, dated 2010).

One assay concerns GRP-94. The experiment in a line: Level of GRP-94 in STZ diabetic rat liver (Western blot). It counts as in vivo. As to conditions: for relative amount of GRP-94: rats diabetic for 4 weeks. Background: A western blot detects proteins with antibodies after separation by electrophoresis.
The subject of assay [1] is mitochondrial ATP synthesis. The experiment in a line: Coupling of oxidative phosphorylation / mitochondrial ATP synthesis after heat shock (oxygraph). The assay is classed as cell-based, Saccharomyces cerevisiae. The settings on record: 10 to 100 μM, one hour at 25° C. before 42° C. heat shock. On the procedure: The experimental protocol for determining the impairment of oxidative phosphorylation and mitochondrial ATP synthesis in Saccharomyces cerevisiae is provided in Patriarca et al., Bio-chemistry and Cell Biology, 70:207-214, 1992, said reference being fully incorporated herein by reference.
To S. cerevisiae cells that were maintained at 25° C., varying concentration of N-[2-hydroxy-3-(1-piperidinyl)propoxy]-3-piridinecarboximidoyl chloride maleate was introduced (concentrations between 10 to 100 μM), cells were then incubated for one hour at 25° C. in the presence of N-[2-hydroxy-3-(1-piperidinyl)propoxy]-3-piridinecarboximidoyl chloride maleate. The temperature was then increased to 42° C., and the oxygraph measurements were taken as described in the Patriarca reference.

In assay [2] the test system is HSP72. The experiment in a line: Heat stress induced hsp72 level in L-929 mouse fibroblast cells. It counts as cell-based. The settings on record: L-929 cells, 10^−5 M, treatment preceded heat stress. On the procedure:
(§1) From the applied cells the 3T3 and L-929 mouse fibroblasts were cultured in MEM medium and grew in monolayer, the U-937 human leukemia cells were maintained in RPMI-1640 medium, in suspension culture, while the HeLa human epithelial cells were cultured in DMEM medium and in monolayer form. Cell cultures were maintained as described in example 6.2 (a) with the difference that cells were cultured in the above mentioned culture mediums.
(§2) Experiments were carried out applying stress before and after the drug treatment. Stress was provoked by heat, by chemical agent, HgCl2 treatment. The test compounds were applied in the treatments at the 10^−5 M concentration.
(§3) The experiments on 3T3 cell applying heat stress were performed as described in the 6.2. (c) point of example 6, with the difference that stress was induced by a 30 min. exposure at 43° C. temperature and treatment with the test compounds was performed 15 min. before or 100 min. after the heat stress.
(§4) Experiments using heat shock on U-937 leukemia and L-929 mouse fibroblast cells were carried out similarly as described above, but drug treatments in these tests always preceded the heat stress. The compound N-[2-hydroxy-3-(1-piperidinyl)-propoxy]-3-pyridine-carboximidoyl chloride maleate was tested at the 10^−5 M concentration under these experimental conditions.

Assay [3] relates to hsp72. The experiment in a line: hsp72 in skin of UVB exposed human skin grafted SCID mice (immunofluorescence, Western blot). The settings on record: 5.0 mg/kg i.p. It counts as in vivo. On the procedure: Human skin tissues were grafted onto immunodeficiency (SCID) mice. The experimental protocol involved a treatment of one group of the mice with N-[2-hydroxy-3-(1-piperidinyl)propoxy]-3-piridinecarboxymidoyl chloride maleate (5.0 mg/kg i.p.) and the other with the solvent NaCl solution (300 μl) for 7 days. On day 8, both groups of mice were exposed to UVB light (100 mJ/cm^2) 24 hours subsequent to the exposure, skin biopsies were taken for histological (sections stained with hematoxylin and eosin), and immunohistological examinations (indirect immunoflourescence technique with monoclonal antibody, mAB).
All steps were carried out at room temperature. Skin (about 9-35 mg) was cut into tiny pieces and homogenized with frosted-glass pestle in Eppendorf tubes for 2 min. in ([…]) of 2 times concentrated Laemmli buffer (65 mM Tris-HCI, pH 6.8: 5% β-mercaptoethanol; 2% SDS; 10% glycerol; 0.1% bromophenolblue; all of these materials were Sigma products). Then samples were solubilized for another 60 min. with continuous shaking. The homogenates were centrifuged at 10.000 rpm for 10 min. prior loading to the gel.
Electrophoresis were carried out on 8% polyacrylamide gel with 10 μl of sample per lane at constant voltage (50 V) for overnight. […]

The subject of assay [4] is hsp72. The experiment in a line: Heat stress induced hsp72 level in U-937 leukemia cells. It counts as cell-based, human. The settings on record: U-937 cells, 10^−5 M, treatment preceded heat stress. On the procedure:
as §1, §2, §3, §4

Assay [5] concerns Streptozotocin-induced diabetic (STZ) rats. The experiment in a line: Wound healing of thermal wounds in STZ-diabetic rats. The assay is classed as in vivo, rat. The settings on record: 4% containing cream, topical. Here is the method: (§5) (ii) Streptozotocin-induced diabetic (STZ) rats with partial-to full thickness thermal wounds created on bilateral thoracic depilated skin by electroheating probe (3 mm of diameter; 60° C.; for 30, 60 and 90 sec.), treated by topical application of 1%, 2% or 4% N-[2-hydroxy-3-(1-piperidinyl)propoxy]-3-piridinecarboximidoyl chloride maleate containing cream or vehicle were used to determine the wound healing in form of self-control, side to side comparison. Wound closure was recorded photographically and using the digital epiluminescence microscopic technique. Wound areas were measured by planimetry 48 h and 21 days after heat injury. Level of hsp72 of skin biopsy samples was determined using Western blot analysis.

Assay [6] concerns Hsp72. The experiment in a line: hsp72 level of skin biopsy samples of STZ-diabetic rats (Western blot). It counts as in vivo, rat. The settings on record: 4% containing cream, topical. Here is the method: as §5

Each structure is given as a SMILES string.

Take `O=C(O)/C=C\C(=O)O.OC(CON=C(Cl)c1cccnc1)CN1CCCCC1` (centres unmarked) [N-[2-hydroxy-3-(1-piperidinyl)-propoxy]3-pyridinecarboximidoyl chloride maleate]: the “decrease of relative GRP-94 content” value in the assay on GRP-94 (1 week and 2-weeks diabetic animals, 20 mg/kg/day p.o.) was “completely be reverted”. The “levels of GRP-94 compared to the control state” value in the assay with GRP-94 (in combination with insulin, 1 week and 2-weeks samples) is reported as “almost doubled”. Also, the “relative amount of GRP-94” value with GRP-94 (compound alone) is reported as “no significant alteration”; with GRP-94 (insulinized and treated with the compound) it was “recovery of GRP-94 to the control level”. Also, the “protection from the impairment of mitochondrial ATP synthesis” value in assay [1] is given as 40-60%. Besides, the “increase in the heat stress induced hsp72 level” value in the assay with HSP72 [2] and in the assay on hsp72 [4] was “more than 50%” throughout. For the same compound, the “amount of hsp72 by Western blotting” value with hsp72 [3] (UVB 100 mJ/cm^2, biopsy after 24 h) is listed as “increased amount of hsp72”. Besides, in the assay on hsp72 [3] (UVB 100 mJ/cm^2, biopsy after 24 hours), the “hsp72 staining by indirect immunofluorescence” value is “intense, linear staining along the basement membrane zone”. Moreover, the “wound closure compared to vehicle control” value in assay [5] is “accelerated wound closure”. Moreover, the “hsp72 level in skin biopsy samples compared to vehicle control” value in the assay with Hsp72 [6] is reported as “elevated the hsp72 level”.
